Laboratory results as given in US8697659B2, “Analogues of glycolipids useful as immunoadjuvants” (Luigi Panza, priority 2007, dated 2014).

Assays:
[1] = tested on: mouse T cell hybridomas FF13; experiment: IL-2 secretion by recognition of glycolipids by a murine NKT cell line (FF13 hybridoma, THP1 hCD1d as APC, ELISA); assay type: cell-based; details: at 10 micromolar; CD1d-transfected THP-1 cells exposed two hours to test compound; IL-2 in medium determined 48 hrs later
Experimental: As a measure of T cell activation, IL2 release into the culture medium was determined after 48 hours culture by an ELISA assay. […] The x-axis is amount of glycolipid in μg/ml.
The biological evaluation of compounds of the invention uses mouse Vα14i NKT cells immortalized by cell fusion to give hybridomas FF13 through the presentation by APC (THP1). As a measure of T cell activation, IL2 release into the culture medium was determined after 48 hours culture by an ELISA assay. […]
100 μl FF13 in complete medium were added (10×10^4 per well) and after 48 hours the tests were evaluated for IL2 production.
IL2 concentration is evaluated by ELISA using a primary monoclonal Anti-mouse IL-2 Antibody (R&D System), a biotinylated detection anti-mouse IL-2 Antibody (R&D System) and as color developer SIGMA FAST OPD. […]
FIG. 2 depicts the IL2 levels released by cells that had been treated with compounds 13-16, compared to the effect of alpha-GalCer itself, in an NKT cell hybridoma test. The a-GalCer specific NKT hybridoma cells were added to CD1d-transfected THP-1 cells that had been exposed for two hours to various doses of the test compound (about 0.1 to about 10 μg/mL), and IL-2 levels in the medium were determined 48 hrs later.

Solubility in water = assay type: physicochemical
Experimental: In some embodiments, the compounds of the invention have a solubility of at least about 0.5 mg/mL, 1 mg/mL, 2 mg/mL, 5 mg/mL, 7.5 mg/mL, 10 mg/mL, 12.5 mg/mL, 15 mg/mL, 17.5 mg/mL, 20 mg/mL, 25 mg/mL, 30 mg/mL, 40 mg/mL, 50 mg/mL, 75 mg/mL, 100 mg/mL, 150 mg/mL or 200 mg/mL in an aqueous solution.

CCCCCCCCCCCCCCCCCCCCCCCCCC(=O)N[C@@H](COC1OC(CO)C(O)C(O)C1O)[C@H](O)[C@H](O)COCCOCCCC (stereo partly drawn) [Compound 13, (2S,3S,4R)-5-O-(2-butoxyetil)-2-(N-exacosanoylamino)-1-O-(α-D-galactopyranosyl)-1,3,4,5-pentanetetraol]
IL2 levels released, compared to the effect of alpha-GalCer [1]: as effective as a-GalCer

CCCCCCCCCCCCCCCCCCCCCCCCCC(=O)N[C@@H](CO[C@H]1OC(CO)[C@H](O)C(O)C1O)[C@H](O)[C@H](O)COCCCc1ccccc1 (stereo partly drawn) [Compound 15]
solubility in water (Solubility in water): soluble in water

CCCCCCCCCCCCCCCCCCCCCCCCCC(=O)N[C@@H](CO[C@H]1OC(CO)[C@H](O)C(O)C1O)[C@H](O)[C@H](O)COCCCc1ccccc1 (stereo partly drawn) [Compound 16]
IL2 levels released, compared to the effect of alpha-GalCer [1]: as effective as a-GalCer
